Laboratory results reported in patent US12016858B2, “Methods for the treatment of abnormal involuntary movement disorders” (AUSPEX PHARMACEUTICALS, INC., priority 2015, dated 2024).

System: motor and phonic tics of TS
Test: Open-label pilot study of safety and efficacy in TS patients
Assay type: in vivo, human
Parameters: key to VTSS, Mean / TTS, Mean / GSS, Mean / MTSS, Median / TTS, Median / GSS, Median / MTSS change, Mean / VTSS change, Mean / TTS change, Mean / MTSS change, Median / VTSS change, Median / TTS change, Median: Yale Global Tic Severity Scale (YGTSS) scores
From the text: An open-label, pilot study was undertaken 1) to evaluate the safety and tolerability of treatment with deutetrabenazine, and 2) to evaluate the efficacy of deutetrabenazine to suppress the motor and phonic tics of TS. Study Design. Inclusion criteria (at screening, unless otherwise indicated) included: 12 to 18 years of age, inclusive; […] Throughout the study, an independent rater assessed tic severity with the Yale Global Tic Severity Scale (YGTSS) and tic impact with the TS-Clinical Global Impression (TS-CGI) scale. The independent rater will not have knowledge of the subject's clinical care, including medications or reports of adverse events (AEs). Dose regimen. Study drug was available in five dose strengths: 6, 9, 12, 15, and 18 mg, all of which were identical in size, shape, and color (white). […] Subjects then maintained that dose level for the duration of the treatment period. Subjects who were receiving CBIT (Comprehensive Behavioral Intervention for Tics) therapy were permitted to participate as long as therapy had been stable/ongoing for at least 4 weeks before Screening and was expected to be stable for the duration of the trial. Study drug was dosed as follows. All treatment doses were administered with meals. A daily dose of 6 mg was given once a day in the morning, and daily doses of 12 mg and higher were administered twice daily in divided doses, approximately 10 hours apart during the day. The starting dose was deutetrabenazine 6 mg in the AM. The dose of study drug was optionally adjusted weekly in increments of 6 mg/day during the titration period to identify a dose level that suppressed tics and was well tolerated. Dose reductions were in increments of 6 mg/day. In this study, the maximum total daily dose of deutetrabenazine at the Week 5 visit or later was 36 mg (18 mg twice daily [BID]). Titration period (6 weeks). […] Safety evaluations during titration included assessment of vital signs, monitoring for adverse events, and rating scales for depression and suicidal ideation and behavior. In-person study visits were scheduled at Weeks 2 and 4 after initiating therapy and telephone contacts were scheduled for Weeks 1, 3, 5, and 6 after initiating therapy in order to assess tic suppression and adverse events. The YGTSS and TS-CGI were assessed by an independent rater. The Investigator, in consultation with the subject and parent/guardian, determined when an adequate level of tic suppression had been achieved. The dose of deutetrabenazine was increased on a weekly basis until there was adequate suppression of tics, the subject experienced a protocol-defined “clinically significant” AE (defined as an AE that is related to study medication and either (1) moderate or severe in intensity or (2) meets the criteria for a serious adverse event [SAE]), or the maximal allowable dose was reached. Although dose adjustments could made up to and including the Week 5 phone call, if a stable dose was reached before then, the subject continued on that dose for the remainder of the titration period and throughout maintenance dosing. Once adequate suppression of tics had been achieved, the dose of study drug was not increased further. If a subject experienced a “clinically significant” AE that was attributed to study drug, the Investigator used his or her judgment to determine if a dose reduction or suspension was necessary. Dose adjustments were to be made based on all available information, including the subject and parent/guardian reports of AEs and tic suppression, the clinical assessment of safety and efficacy by the Investigator, as well as information from rating scales. At the end of the titration period, the subject's dose was established for the maintenance period. Maintenance period (2 weeks). Subjects continued to receive their maintenance dose over the next 2 weeks, although dose reductions for AEs were allowed. […]

For `[2H]C([2H])([2H])Oc1cc2c(cc1OC([2H])([2H])[2H])C1CC(=O)C(CC(C)C)CN1CC2` (stereo not drawn) [deutetrabenazine, (RR, SS)-1,3,4,6,7,11b-hexahydro-9,10-di(methoxy-d3)-3-(2-methylpropyl)-2H-benzo[a]quinolizin-2-one], the TS-CGI mean score (Week 8, from a baseline of 4.7, 7 point scale, lower is better) was 3.7, the “GSS, Mean” value (Wk 2) was 59.4 and the “GSS, Median” value (Wk 2) was 57. The “MTSS, Mean” value (Wk 2) was 15.9, the “MTSS, Median” value (Wk 2) was 16 and the “TTS, Mean” value (Wk 2) was 29.4. For the same molecule, the “TTS, Median” value (Wk 2) was 28, the “VTSS, Mean” value (Wk 2) was 13.5 and the “VTSS, Median” value (Wk 2) was 14. The “GSS, Mean” value (Wk 4) was 51.1, the “GSS, Median” value (Wk 4) was 51 and the “MTSS, Mean” value (Wk 4) was 14.2. The “MTSS, Median” value (Wk 4) was 14, the “TTS, Mean” value (Wk 4) was 26.3 and the “TTS, Median” value (Wk 4) was 27. For the same molecule, the “VTSS, Mean” value (Wk 4) was 12.1, the “VTSS, Median” value (Wk 4) was 12 and the “GSS, Mean” value (Wk 8) was 45.1. The “GSS, Median” value (Wk 8) was 47, the “Impairment, Mean” value (Wk 8) was 22.9 and the “Impairment, Median” value (Wk 8) was 20. For the same molecule, the “MTSS, Mean” value (Wk 8) was 12.0, the “MTSS, Median” value (Wk 8) was 11 and the “TTS, Mean” value (Wk 8) was 21.2. For the same molecule, the “TTS, Median” value (Wk 8) was 23, the “VTSS, Mean” value (Wk 8) was 9.2 and the “VTSS, Median” value (Wk 8) was 9. For the same molecule, the “GSS, Mean” value (Wk 9 (washout)) was 51.7, the “GSS, Median” value (Wk 9 (washout)) was 51 and the “MTSS, Mean” value (Wk 9 (washout)) was 13.9. The “MTSS, Median” value (Wk 9 (washout)) was 14.5, the “TTS, Mean” value (Wk 9 (washout)) was 25.6 and the “TTS, Median” value (Wk 9 (washout)) was 26. For the same molecule, the “VTSS, Mean” value (Wk 9 (washout)) was 11.7, the “VTSS, Median” value (Wk 9 (washout)) was 10.5 and the PGIC mean improvement (after 8 weeks of treatment, 7-point scale, preliminary) was 1.8 points. For the same molecule, the “patients much or very much improved (PGIC)” value (after 8 weeks of treatment, preliminary) was “about 75%”, the “motor and vocal tics (FIG. 9)” value (baseline through week 8) was “lowered (improved) both motor and vocal tics” and the “GSS change, Mean” value (Δ B-Wk 2) was −7.7. The “GSS change, Median” value (Δ B-Wk 2) was 0, the “MTSS change, Mean” value (Δ B-Wk 2) was −1.9 and the “MTSS change, Median” value (Δ B-Wk 2) was 0. For the same molecule, the “TTS change, Mean” value (Δ B-Wk 2) was −2.9, the “TTS change, Median” value (Δ B-Wk 2) was 0 and the “VTSS change, Mean” value (Δ B-Wk 2) was −1.0. For the same molecule, the “VTSS change, Median” value (Δ B-Wk 2) was 0, the “GSS change, Mean” value (Δ B-Wk 9) was −14.7 and the “GSS change, Median” value (Δ B-Wk 9) was −10.5. For the same molecule, the “MTSS change, Mean” value (Δ B-Wk 9) was −3.4, the “MTSS change, Median” value (Δ B-Wk 9) was −3 and the “TTS change, Mean” value (Δ B-Wk 9) was −6.3. The “TTS change, Median” value (Δ B-Wk 9) was −5, the “VTSS change, Mean” value (Δ B-Wk 9) was −2.9 and the “VTSS change, Median” value (Δ B-Wk 9) was −2.5.
